{"source": "patent US20020192253A1", "about": "“Peeling composition” (priority 1999, published 2002)", "test_system": "skin", "test": "Photodynamic peeling: ointment applied to facial skin, then 635 nm excimer dye laser irradiation", "conditions": "for time at which peeling was completed after the operation: 635 nm", "key": {"[1]": {"conditions": "Example 1: 10 g of 20% ointment, left half of face, 4 hours, 5 J/cm^2 for 30 minutes"}, "[2]": {"conditions": "Example 2: 5 g of 20% ointment, right cheek, 12 hours, 5 J/cm^2 for 15 minutes"}}, "note": "Where a name gives a salt, the structure may show the parent alone.", "data": [{"smiles": "NCC(=O)CCC(=O)O", "note": "[5-ALA hydrochloride, 5-aminolevulinic acid]", "values": [{"measurement": "condition of treated part in follow-up survey", "setting": "Example 1: 6 months after the treatment", "value": "still remained in favorable conditions"}, {"measurement": "day from which edematous erythema gradually disappeared", "setting": "[1]", "value": 3, "unit": "days"}, {"measurement": "skin reaction at the affected part after irradiation", "setting": "[1]", "value": "edematous erythema was formed at the affected part"}, {"measurement": "time at which peeling was completed after the operation", "setting": "Example 1: person, 10 g of 20% by weight ointment on left half of face, 4 hours shaded, 5 J/cm^2 for 30 minutes", "value": 3, "unit": "weeks"}, {"measurement": "skin tension, wrinkles, pigmentation, acne spots compared with the untreated right part of the face", "setting": "Example 1: treated left versus right part of face", "value": "obviously relieved"}, {"measurement": "day from which edematous erythema gradually disappeared", "setting": "[2]", "value": 3, "unit": "days"}, {"measurement": "skin reaction at the affected part after irradiation", "setting": "[2]", "value": "edematous erythema was formed at the affected part"}, {"measurement": "condition of treated part in follow-up survey", "setting": "Example 2: 6 months after the treatment", "value": "still remained in favorable conditions"}, {"measurement": "time at which peeling was completed after the operation", "setting": "Example 2: person, 5 g of 20% by weight ointment on right cheek (6 cm×6 cm), 12 hours shaded, 5 J/cm^2 for 15 minutes", "value": 6, "unit": "days"}, {"measurement": "skin tension, wrinkles, pigmentation, acne spots compared with the corresponding part in the left cheek", "setting": "Example 2: treated right cheek versus left cheek", "value": "obviously relieved"}]}]}
